According to patent publication US20170296459A1, “METHOD OF IMPROVING THE APPEARANCE OF PERIORBITAL DYSCHROMIA” (The Procter & Gamble Company, priority 2016, published 2017):

Test system: B16-F1 mouse melanoma cell line
Test: B16 melanin synthesis inhibition assay
Assay type: cell-based
Conditions: B16-F1 cells, OD at 410 nm
Procedure: In this example, a commercially available B16-F1 mouse melanoma cell line from American Tissue Culture Collection, Virginia, USA was employed in a conventional melanin synthesis inhibition assay. The cell culture medium used in the assay is 500 mL of Dulbecco's Modified Eagle's Medium (DMEM), 50 mL Fetal Bovine Serum (FBS), and 5 mL of penicillin-streptomycin liquid. B16-F1 cells that are cultured in this medium and grown to greater than 90% confluency will synthesize melanin. While not intending to be bound by any theory, it is hypothesized that the melanin synthesis is stimulated by the culture medium and/or stress induced by growth to a high confluency. […] Equipment used in the assay include a CO2 incubator, such as a Forma Series Model 3110 by Therma Scientific, Massachusetts, USA; a hemocytometer, such as a Bright Line model by Hauser Scientific, Pennsylvania, USA; and a UV-Visible Spectrum Plate Reader, such as a SpectraMax250 from Molecular Devices, California, USA. […] Day 3: The cells from the T-150 flask are trypsinized, and the concentration of cells is determined using the hemacytometer. […] Read the 96 well plate using the UV-Vis Plate Reader at 410 nm to optically measure the amount of melanin produced between wells that are treated with the fava bean extract and control wells that are not. […] The concentration of test agent needed to provide the IC 50 is recorded.

Concentration Needed for IC 50 | Structure (SMILES)
0.008 v/v | Oc1ccc(OC2CCCCO2)cc1 (centres unmarked) [Deoxyarbutin]
0.01 v/v | O=c1cc(CO)occ1O [Kojic Acid]
